# Reference: patent US20230241071A1, “COMBINATION TREATMENT OF LIVER DISORDERS” (Terns Pharmaceuticals, Inc., priority 2021, published 2023)
# Marks after values point to notes of the source that are not given here.
# Tests used:
# [1] = biological target: T1, THR-β (Homo sapiens, UniProt P10828); assay: Binding activity to the thyroxine receptor beta
# T1 sequence (P10828 1-461): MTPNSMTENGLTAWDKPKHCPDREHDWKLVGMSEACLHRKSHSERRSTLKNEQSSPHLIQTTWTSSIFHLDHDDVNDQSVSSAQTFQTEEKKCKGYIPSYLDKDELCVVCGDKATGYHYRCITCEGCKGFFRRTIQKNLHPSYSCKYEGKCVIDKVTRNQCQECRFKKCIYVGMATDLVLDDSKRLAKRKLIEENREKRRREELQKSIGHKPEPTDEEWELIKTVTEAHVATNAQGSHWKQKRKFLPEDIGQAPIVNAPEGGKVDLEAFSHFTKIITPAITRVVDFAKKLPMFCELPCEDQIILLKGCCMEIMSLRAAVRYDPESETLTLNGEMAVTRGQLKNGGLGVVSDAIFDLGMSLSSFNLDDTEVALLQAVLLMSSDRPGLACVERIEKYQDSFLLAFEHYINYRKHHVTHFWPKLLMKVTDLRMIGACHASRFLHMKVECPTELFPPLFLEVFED
# [2] = Pharmacokinetic evaluation in SD rats; type: in vivo, rat; settings: 2.0 mg/kg intragastric
# Experimental: Drug Preparation: a certain amount of the drug was taken and added into a 2% Klucel LF+0.1% Tween 80 aqueous solution, to prepare a clear solution or a uniform suspension.
# Dosage: SD rats were fasted overnight and given the drug by intragastric infusion at an administrated dose of 2 mg/kg and an administrated volume of 10 mL/kg each.
# Operation: rats were dosed by intragastric infusion with the compounds. […] The heparinized sample tubes were then stored at −20° C., and the rats were allowed to eat food 2 h after the dosage.
# Determination of contents of the compounds to be tested in the plasma of rats after intragastric infusion of the drugs at different concentrations: the plasma samples were thawed at room temperature, 50 μL each was taken and added into 130 μL of an internal standard working solution (1000 ng/mL, acetonitrile, tolbutamide), and the mixture was whirled for about 1 min and then centrifugated at 4° C. and 13000 rpm for 10 min. 50 μL of the supernatant was taken and mixed with 100 μL of 50% acetonitrile water, and then introduced for LC/MS/MS analysis.
# [3] = pH and solubilizer effect on solubility; type: physicochemical; settings: potassium salt; for solubility at 24 h: 25 °C, thermodynamic from solid
# Experimental: Solubility of compound 2 (potassium salt) was evaluated at various pH levels.
# [4] = Single-ascending dose trial of Compound 2 in healthy participants: safety and PK; type: in vivo, human; settings: for half-life / AUC(0-inf) / Cmax / Tmax: human, plasma, oral; for AUC(0-inf) / Cmax: mean; for fe, fraction of dose excreted in urine as unmodified compound 2: mean (% CV)
# Experimental: A single-ascending dose clinical trial of Compound 2 (potassium salt) was performed.
# Compound 2 plasma and urine concentrations were determined using validated liquid chromatography-tandem mass spectrometry assay
# Urine samples for Compound 2 concentration and PK sampling were collected pre-dose and at the following timepoints: 0-6 hours, 6-12 hours, 12-24 hours, and 24-48 hours. PK parameters were estimated via noncompartmental methods using Phoenix® WinNonlin® (Certara, LP, Princeton, N.J.). Concentrations of serum pharmacodynamic (PD) biomarkers apolipoprotein B (Apo B) and sex hormone binding globulin (SHBG) were measured using an immunoassay and serum lipids were determined using spectrophotometry.
# [5] = biological target: T2, OATP1B1 (Homo sapiens, UniProt Q9Y6L6); assay: In vitro transporter inhibition, OATP1B1; type: in vitro ADME
# T2 sequence (Q9Y6L6 1-691): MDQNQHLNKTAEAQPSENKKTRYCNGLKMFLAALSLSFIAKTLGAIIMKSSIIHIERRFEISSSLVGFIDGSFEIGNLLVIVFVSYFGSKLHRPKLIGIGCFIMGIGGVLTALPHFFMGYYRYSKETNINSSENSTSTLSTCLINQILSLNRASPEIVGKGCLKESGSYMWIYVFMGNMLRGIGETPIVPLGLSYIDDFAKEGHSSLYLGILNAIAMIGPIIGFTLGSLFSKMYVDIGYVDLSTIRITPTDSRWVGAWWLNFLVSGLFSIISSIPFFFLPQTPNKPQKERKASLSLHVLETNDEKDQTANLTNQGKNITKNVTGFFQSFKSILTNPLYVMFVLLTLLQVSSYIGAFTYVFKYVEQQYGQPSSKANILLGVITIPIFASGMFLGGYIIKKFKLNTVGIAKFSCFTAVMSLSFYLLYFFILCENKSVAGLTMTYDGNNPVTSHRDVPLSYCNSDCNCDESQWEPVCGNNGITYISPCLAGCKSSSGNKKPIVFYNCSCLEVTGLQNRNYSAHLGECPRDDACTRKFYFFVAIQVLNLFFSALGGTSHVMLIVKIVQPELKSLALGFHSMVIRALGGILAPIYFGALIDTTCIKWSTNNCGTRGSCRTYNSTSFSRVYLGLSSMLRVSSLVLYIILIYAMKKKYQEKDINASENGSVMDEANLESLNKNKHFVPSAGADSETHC
# [6] = single dose 3 mg, fasted (n = 6)
# [7] = single dose 10 mg, fasted (n = 6)
# [8] = single dose 30 mg, fasted (n = 6)
# [9] = single dose 60 mg, fasted (n = 6)
smiles,measurement,setting,value
"N#Cc1nn(-c2cc(Cl)c(Oc3n[nH]c(=O)c4ccccc34)c(Cl)c2)c(=O)[nH]c1=O [Compound 2, 2-(3,5-dichloro-4-((4-oxo-3,4-dihydrophthalazin-1-yl)oxy)phenyl)-3,5-dioxo-2,3,4,5-tetrahydro-1,2,4-triazine-6-carbonitrile]",THR-α/-β selectivity,[1]; ratio of binding IC50,>58.8 factor
same,IC50,[1]; read-out: IC50 THR-β binding force,170 nM
same,Curve area,[2],24790 ± 3704 ng·h/mL
same,Peak blood drug concentration,[2],2007 ± 106 ng/mL
same,Time to peak,[2],4.67 ± 1.15 h
same,half-life,"[2]; male, rat, plasma, po",4.56 ± 0.42 h
same,solubility at 24 h,"[3]; 0.1N HCl with 2 wt % SLS, aqueous with cosolvent or surfactant or cyclodextrin, 0.1N HCl, with 2 wt % SLS",5.7 µg/mL
same,solubility at 24 h,"[3]; 0.1N HCl, simulated gastric fluid, without 2 wt % SLS",< 0.03 µg/mL
same,solubility at 24 h,"[3]; pH 2.0 buffer with 2 wt % SLS, pH 2, aqueous with cosolvent or surfactant or cyclodextrin, pH 2.0 buffer, with 2 wt % SLS",5.5 µg/mL
same,solubility at 24 h,"[3]; pH 2.0 buffer, pH 2, aqueous buffer, without 2 wt % SLS",< 0.07 µg/mL
same,solubility at 24 h,"[3]; pH 4.0 buffer with 2 wt % SLS, pH 4, aqueous with cosolvent or surfactant or cyclodextrin, pH 4.0 buffer, with 2 wt % SLS",10 µg/mL
same,solubility at 24 h,"[3]; pH 4.0 buffer, pH 4, aqueous buffer, without 2 wt % SLS",< 0.07 µg/mL
same,solubility at 24 h,"[3]; pH 6.0 buffer with 2 wt % SLS, pH 6, aqueous with cosolvent or surfactant or cyclodextrin, pH 6.0 buffer, with 2 wt % SLS",42.3 µg/mL
same,solubility at 24 h,"[3]; pH 6.0 buffer, pH 6, aqueous buffer, without 2 wt % SLS",2.2 µg/mL
same,solubility at 24 h,"[3]; pH 8.0 buffer with 2 wt % SLS, pH 8, aqueous with cosolvent or surfactant or cyclodextrin, pH 8.0 buffer, with 2 wt % SLS",302 µg/mL
same,solubility at 24 h,"[3]; pH 8.0 buffer, pH 8, aqueous buffer, without 2 wt % SLS",10.8 µg/mL
same,solubility at 24 h,"[3]; pH 10.0 buffer with 2 wt % SLS, pH 10, aqueous with cosolvent or surfactant or cyclodextrin, pH 10.0 buffer, with 2 wt % SLS",308 µg/mL
same,solubility at 24 h,"[3]; pH 10.0 buffer, pH 10, aqueous buffer, without 2 wt % SLS",10.2 µg/mL
same,Solubility,"[3]; pH 10.0 buffer, 24 h, with 2 wt % SLS, 25° C.",308.2 µg/mL
same,heart rates,[4]; 24 hours after single dose,remained stable and within the normal range
same,renal excretion,[4]; all single doses,Minimal renal excretion
same,half-life,"[4]; 3 mg, single dose 3 mg, fasted (n = 6), median (min-max), read-out: t1/2 (converted)",17.3 h
same,half-life,"[4]; 10 mg, single dose 10 mg, fasted (n = 6), median (min-max), read-out: t1/2 (converted)",14.4 h
same,half-life,"[4]; 30 mg, single dose 30 mg, fasted (n = 6), median (min-max), read-out: t1/2 (converted)",15.7 h
same,half-life,"[4]; 60 mg, single dose 60 mg, fasted (n = 6), median (min-max), read-out: t1/2 (converted)",13.8 h
same,half-life,"[4]; single dose 3-60 mg, read-out: half-life (median) across single dose levels",13.8 to 17.3 h
same,AUC(0-inf),[4]; [6],4060 ng·h/mL
same,Cmax,[4]; [6],217 ng/mL
same,Tmax,"[4]; single dose 3 mg, fasted (n = 6), median (min-max)",4 h
same,AUC(0-inf),[4]; [7],8110 ng·h/mL
same,Cmax,[4]; [7],614 ng/mL
same,Tmax,"[4]; single dose 10 mg, fasted (n = 6), median (min-max)",4 h
same,AUC(0-inf),[4]; [8],33000 ng·h/mL
same,Cmax,[4]; [8],1800 ng/mL
same,Tmax,"[4]; single dose 30 mg, fasted (n = 6), median (min-max)",4 h
same,AUC(0-inf),[4]; [9],50000 ng·h/mL
same,Cmax,[4]; [9],3300 ng/mL
same,Tmax,"[4]; single dose 60 mg, fasted (n = 6), median (min-max)",4 h
same,overall safety and tolerability,[4]; single ascending doses up to 60 mg,safe and well-tolerated
same,AEs by relationship to drug: Not related,[4]; single dose 3 mg (n = 6),2 (33.3%)
same,AEs by relationship to drug: Possibly related,[4]; single dose 3 mg (n = 6),0
same,AEs by relationship to drug: Related,[4]; single dose 3 mg (n = 6),0
same,AEs by relationship to drug: Unlikely related,[4]; single dose 3 mg (n = 6),0
same,"Any AE, all CTCAE grades",[4]; single dose 3 mg (n = 6),2 (33.3%)
same,CTCAE Grade 1 AEs,[4]; single dose 3 mg (n = 6),0
same,CTCAE Grade 2 AEs,[4]; single dose 3 mg (n = 6),0
same,CTCAE Grade 3 or higher AEs,[4]; single dose 3 mg (n = 6),0
same,Serious AEs,[4]; single dose 3 mg (n = 6),0
same,"fe, fraction of dose excreted in urine as unmodified compound 2",[4]; [6],"2.95 (62) % dose, urine"
same,AEs by relationship to drug: Not related,[4]; single dose 10 mg (n = 6),0
same,AEs by relationship to drug: Possibly related,[4]; single dose 10 mg (n = 6),0
same,AEs by relationship to drug: Related,[4]; single dose 10 mg (n = 6),0
same,AEs by relationship to drug: Unlikely related,[4]; single dose 10 mg (n = 6),0
same,"Any AE, all CTCAE grades",[4]; single dose 10 mg (n = 6),0
same,CTCAE Grade 1 AEs,[4]; single dose 10 mg (n = 6),0
same,CTCAE Grade 2 AEs,[4]; single dose 10 mg (n = 6),0
same,CTCAE Grade 3 or higher AEs,[4]; single dose 10 mg (n = 6),0
same,Serious AEs,[4]; single dose 10 mg (n = 6),0
same,"fe, fraction of dose excreted in urine as unmodified compound 2",[4]; [7],"2.05 (74) % dose, urine"
same,AEs by relationship to drug: Not related,[4]; single dose 30 mg (n = 6),1 (16.7%)
same,AEs by relationship to drug: Possibly related,[4]; single dose 30 mg (n = 6),1 (16.7%)*
same,AEs by relationship to drug: Related,[4]; single dose 30 mg (n = 6),0
same,AEs by relationship to drug: Unlikely related,[4]; single dose 30 mg (n = 6),0
same,"Any AE, all CTCAE grades",[4]; single dose 30 mg (n = 6),2 (33.3%)
same,CTCAE Grade 1 AEs,[4]; single dose 30 mg (n = 6),1 (16.7%)
same,CTCAE Grade 2 AEs,[4]; single dose 30 mg (n = 6),1 (16.7%)
same,CTCAE Grade 3 or higher AEs,[4]; single dose 30 mg (n = 6),0
same,Serious AEs,[4]; single dose 30 mg (n = 6),0
same,"fe, fraction of dose excreted in urine as unmodified compound 2",[4]; [8],"1.78 (35) % dose, urine"
same,AEs by relationship to drug: Not related,[4]; single dose 60 mg (n = 6),0
same,AEs by relationship to drug: Possibly related,[4]; single dose 60 mg (n = 6),0
same,AEs by relationship to drug: Related,[4]; single dose 60 mg (n = 6),0
same,AEs by relationship to drug: Unlikely related,[4]; single dose 60 mg (n = 6),0
same,"Any AE, all CTCAE grades",[4]; single dose 60 mg (n = 6),0
same,CTCAE Grade 1 AEs,[4]; single dose 60 mg (n = 6),0
same,CTCAE Grade 2 AEs,[4]; single dose 60 mg (n = 6),0
same,CTCAE Grade 3 or higher AEs,[4]; single dose 60 mg (n = 6),0
same,Serious AEs,[4]; single dose 60 mg (n = 6),0
same,"fe, fraction of dose excreted in urine as unmodified compound 2",[4]; [9],"1.53 (53) % dose, urine"
same,"TSH, free T3, and free T4 levels",[4]; single dose 3-60 mg,remained within the normal range
same,cardiac related AEs,[4]; single dose 3-60 mg,No cardiac related AEs
same,"exposures (AUC, Cmax), dose proportionality",[4]; single dose 3-60 mg,approximately dose-proportional
same,half-life (median) across single dose levels,[4]; single dose 3-60 mg,> 13 h
same,severity of adverse events,[4]; single dose 3-60 mg,mild or moderate
same,subjects with increases in ALT more than 2-times greater than ULN,[4]; single dose 3-60 mg,No subjects
same,IC50,[5],2010 nM
